Laboratory results as given in patent publication US20040024024A1, “Aromatic sulfone hydroxamates and their use as protease inhibitors” (priority 2001, published 2004).

Columns and labels:
Experiment in all cases: In vitro MMP inhibition, IC50 determination (fluorogenic substrate I)
Format in all cases: biochemical
Human recombinant MMP-1 = molecular target: T1, Human recombinant MMP-1 (Homo sapiens, UniProt P03956)
T1 construct: made in house; host or cells: MMP-1-transfected HT-1080 cells (spent media)
T1 sequence (P03956 100-469): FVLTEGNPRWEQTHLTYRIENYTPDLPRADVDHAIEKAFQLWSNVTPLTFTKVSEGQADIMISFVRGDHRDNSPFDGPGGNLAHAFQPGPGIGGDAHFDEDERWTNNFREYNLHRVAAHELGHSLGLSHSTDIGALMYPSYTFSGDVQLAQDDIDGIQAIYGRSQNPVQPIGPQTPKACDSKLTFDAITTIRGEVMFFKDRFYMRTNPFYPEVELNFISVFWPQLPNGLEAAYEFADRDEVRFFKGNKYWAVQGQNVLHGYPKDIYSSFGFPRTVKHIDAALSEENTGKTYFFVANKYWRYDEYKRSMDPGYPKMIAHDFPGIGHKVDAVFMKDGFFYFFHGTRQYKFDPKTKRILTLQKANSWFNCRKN
Description: (§1) Several hydroxamates and salts thereof were analyzed in in vitro assays to determine their ability to inhibit the MMP cleavage of peptide substrates. Inhibition (Ki) and IC50 constants were calculated from the assayed hydroxamate-MMP interactions.
(§2) Human recombinant MMP-1, MMP-2, MMP-9, MMP-13, and MMP-14 were used in this assay. All enzymes were prepared in Assignee's laboratories following usual laboratory procedures. Protocols for the preparation and use of these enzymes are available in the scientific literature. See, e.g., Enzyme Nomenclature (Academic Press, San Diego, Calif., 1992) (and the citations therein). See also, Frije et al., J. Biol. Chem., 26(24), 16766-73 (1994).
The MMP-1 proenzyme was purified from the spent media of MMP-1-transfected HT-1080 cells provided by Dr. Harold Welgus of Washington University (St. Louis, Mo.). The protein was purified on a zinc chelating column.
(§3) All MMPs were activated using 4-aminophenylmercuric acetate (“APMA”, Sigma Chemical, St. Louis, Mo.) or trypsin. MMP-9 also was activated using human recombinant MMP-3 (purified in Assignee's laboratory following standard cloning and purification techniques).
(§4) Two fluorogenic, methoxycoumarin-containing polypeptide substrates were used in the MMP inhibition assays:
(§5) MCA-ProLeuGlyLeuDpaAlaArgNH2 (I)
(§6) Here, “Dpa” is 3-(2,4-dinitrophenyl)-L-2,3-diaminopropionyl group, and “MCA” is 7-methoxycoumarin-4-yl acetyl. Substrate (I) was purchased from Baychem (Redwood City, Calif.), and substrate II was prepared Assignee's laboratory. Substrate I was used in the IC50 determination assays, while substrate II was used in the Ki determination assays. In the absence of MMP inhibitory activity, either substrate is cleaved at the Gly-Leu peptide bond. This cleavage separates the highly fluorogenic peptide from the 2,4-dinitrophenyl quencher, thus resulting in increase of fluorescent intensity.
(§7) The stock solutions of the assayed hydroxamates (or salts thereof) were prepared in 1% dimethyl sulfoxide (DMSO). These stock solutions were diluted in Buffer A (100 mM Tris-HCl, 100 mM NaCl, 10 mM CaCl2, 0.05% polyoxyethylene 23 lauryl ether, pH 7.5) to obtain solutions with different hydroxamate concentrations, i.e., assay solutions with different concentrations of the assayed MMP inhibitory compound. The experiment controls contained the same amount of Buffer A/DMSO as the assayed sample, but contained no hydroxamate (or salt thereof).
(§8) The assays from which the IC50 determinations were made were performed as follows. The MMPs were activated with either trypsin or APMA (4-aminophenylmercuric acetate, Sigma Chemical, St. Louis, Mo.). The assayed hydroxamate samples were, incubated in Microfluorrm White Plates (Dynatech, Chantilly, VA) and analyzed on a Perkin Elmer L550 plate reader (Norwalk, Conn.). The excitation wavelength was 328 nm, and the emission wavelength—415 nm. All samples (assayed hydroxamates and controls) were incubated in separate plates at room temperature in the presence of 4 μM of MMP substrate (I). As stated in the previous paragraph, samples containing varying concentrations of the same assayed hydroxamate were prepared. Inhibition was measured as a reduction in fluorescent intensity as a function of MMP inhibitor concentration.

Human recombinant MMP-9 = molecular target: T2, Human recombinant MMP-9 (Homo sapiens, UniProt P14780)
T2 construct: made in house; host or cells: MMP-9-transfected HT1080 cells (spent media)
T2 sequence (P14780 107-707 limits assumed): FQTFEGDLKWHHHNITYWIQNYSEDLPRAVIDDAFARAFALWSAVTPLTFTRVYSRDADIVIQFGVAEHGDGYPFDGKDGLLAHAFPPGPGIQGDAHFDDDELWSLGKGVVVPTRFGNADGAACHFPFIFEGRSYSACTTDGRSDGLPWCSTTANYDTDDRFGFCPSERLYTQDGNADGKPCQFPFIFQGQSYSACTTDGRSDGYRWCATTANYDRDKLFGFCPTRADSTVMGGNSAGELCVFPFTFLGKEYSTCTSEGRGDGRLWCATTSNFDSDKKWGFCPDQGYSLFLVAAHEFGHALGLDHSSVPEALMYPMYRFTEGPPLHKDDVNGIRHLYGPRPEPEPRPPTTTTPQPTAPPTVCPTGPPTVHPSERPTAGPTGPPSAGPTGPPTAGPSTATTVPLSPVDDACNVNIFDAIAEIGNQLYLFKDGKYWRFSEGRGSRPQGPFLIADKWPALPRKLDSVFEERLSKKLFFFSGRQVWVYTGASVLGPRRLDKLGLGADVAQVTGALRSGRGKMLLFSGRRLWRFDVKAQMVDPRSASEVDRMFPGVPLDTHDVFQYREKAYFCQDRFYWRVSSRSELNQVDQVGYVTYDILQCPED
Description: as §1, §2
The MMP-9 proenzyme was purified by gelatin Sepharose chromatography from spent media of MMP-9-transfected HT1080 cells provided by Dr. Howard Welgus of Washington University (St. Louis, Mo.).
as §3, §4, §5, §6, §7, §8

Human recombinant MMP-2 = molecular target: T3, Human recombinant MMP-2 (Homo sapiens, UniProt P08253)
T3 construct: made in house; host or cells: MMP-2-transfected p2AHT2 cells
T3 sequence (P08253 110-660): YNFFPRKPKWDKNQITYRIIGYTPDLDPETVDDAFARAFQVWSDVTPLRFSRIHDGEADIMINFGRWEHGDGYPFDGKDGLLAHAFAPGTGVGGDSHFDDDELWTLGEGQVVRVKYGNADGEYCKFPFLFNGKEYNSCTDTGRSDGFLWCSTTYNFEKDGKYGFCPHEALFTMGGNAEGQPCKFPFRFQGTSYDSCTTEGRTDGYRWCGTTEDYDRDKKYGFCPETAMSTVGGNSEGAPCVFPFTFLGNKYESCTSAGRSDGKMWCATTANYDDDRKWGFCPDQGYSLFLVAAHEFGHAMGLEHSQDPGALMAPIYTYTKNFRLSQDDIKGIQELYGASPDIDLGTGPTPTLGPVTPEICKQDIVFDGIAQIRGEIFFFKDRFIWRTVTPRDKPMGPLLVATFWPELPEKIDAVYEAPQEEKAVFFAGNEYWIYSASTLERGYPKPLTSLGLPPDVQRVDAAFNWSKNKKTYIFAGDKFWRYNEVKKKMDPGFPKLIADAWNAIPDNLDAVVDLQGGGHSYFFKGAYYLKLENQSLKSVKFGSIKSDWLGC
In short: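 IC50 was derived from the concentration-dependent fall in fluorescence (ex 328, em 415 nm) on Gly-Leu cleavage of 4 μM MCA/Dpa-quenched substrate I. Assays ran at room temperature in pH 7.5 Tris/NaCl/CaCl2/Brij buffer with MMP-2 activated by trypsin or APMA; inhibitors were diluted from 1% DMSO stocks.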

Human recombinant MMP-14 = molecular target: T4, Human recombinant MMP-14 (Homo sapiens, UniProt P50281)
T4 construct: The catalytic domain enzyme was expressed in E. coli inclusion bodies, solubilized in urea; made in house
Description: as §1, §2
The MMP-14 full length cDNA was provided by Dr. Gregory Goldberg of Washington University (St. Louis, Mo.). The catalytic domain enzyme was expressed in E. coli inclusion bodies, solubilized in urea, purified on a preparative […] reverse phase HPLC column, and then refolded in the presence of zinc acetate and purified for use.
as §3, §4, §5, §6, §7, §8

Human recombinant MMP-13 = molecular target: T5, Human recombinant MMP-13 (Homo sapiens, UniProt P45452)
T5 construct: made in house; host or cells: baculovirus / insect cells
In short: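 Fluorescence at 415 nm (excitation 328 nm) reports Gly-Leu cleavage of 4 μM quenched methoxycoumarin peptide substrate I. Human recombinant MMP-13, activated by trypsin or APMA, was incubated at room temperature with varied inhibitor concentrations in pH 7.5 Tris/NaCl/CaCl2 buffer; IC50 derived from reduced fluorescence.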

[1] = value outside parentheses (Ki in parenthesis)
[2] = substrate (I) 4 μM, room temperature, values not in parenthesis

## CCCC(CCOc1ccc(S(=O)(=O)C2(C(=O)NO)CCOCC2)cc1)SC (stereo not shown) [Example 475]
Human recombinant MMP-1; [1]
  IC50: > 10000 nM
Human recombinant MMP-9; [1]
  IC50: 120 nM
Human recombinant MMP-2; [1]
  IC50: 30 nM
Human recombinant MMP-14; [1]
  IC50: 3600 nM
Human recombinant MMP-13; [1]
  IC50: 2 nM

## O=C(NO)C1(S(=O)(=O)c2ccc(OCCCSCc3ccccc3)cc2)CCOCC1 [Example 439]
Human recombinant MMP-1; [1]
  IC50: > 10000 nM
Human recombinant MMP-9; [1]
  IC50: 6000 nM
Human recombinant MMP-2; [1]
  IC50: 2000 nM
Human recombinant MMP-14; [1]
  IC50: > 10000 nM
Human recombinant MMP-13; [1]
  IC50: 25 nM

## O=C(NO)C1(S(=O)(=O)c2ccc(OCCCSc3nc4ccccc4s3)cc2)CCN(CC2CC2)CC1 [Example 614]
Human recombinant MMP-1; value outside parentheses
  IC50: > 10000 nM
Human recombinant MMP-9; value outside parentheses
  IC50: 8.5 nM
Human recombinant MMP-2; value outside parentheses
  IC50: 1.8 nM
Human recombinant MMP-14; value outside parentheses
  IC50: 9440 nM
Human recombinant MMP-13; value outside parentheses
  IC50: 0.7 nM

## COc1ccc(-c2nnc(CCCOc3ccc(S(=O)(=O)C4(C(=O)NO)CCOCC4)cc3)o2)cc1 [Example 501]
Human recombinant MMP-1; value outside parentheses
  IC50: > 10000 nM
Human recombinant MMP-9; value outside parentheses
  IC50: 7710 nM
Human recombinant MMP-2; value outside parentheses
  IC50: 184 nM
Human recombinant MMP-14; value outside parentheses
  IC50: > 10000 nM
Human recombinant MMP-13; value outside parentheses
  IC50: 1.4 nM

## COCCN1CCC(C(=O)NO)(S(=O)(=O)c2ccc(OCCCNC(=O)c3ccc(OC(C)C)c(C)c3)cc2)CC1 [Example 230]
Human recombinant MMP-1; value outside parenthesis
  IC50: > 10000 nM
Human recombinant MMP-9; value outside parenthesis
  IC50: 1020 nM
Human recombinant MMP-2; value outside parenthesis
  IC50: 555 nM
Human recombinant MMP-14; value outside parenthesis
  IC50: > 10000 nM
Human recombinant MMP-13; value outside parenthesis
  IC50: 1.1 nM

## O=C(NO)C1(S(=O)(=O)c2ccc(OCCCc3nc(-c4c(Cl)cccc4Cl)no3)cc2)CCOCC1 [Example 214]
Human recombinant MMP-1; value outside parenthesis
  IC50: > 10000 nM
Human recombinant MMP-9; value outside parenthesis
  IC50: 4240 nM
Human recombinant MMP-2; value outside parenthesis
  IC50: 15.8 nM
Human recombinant MMP-14; value outside parenthesis
  IC50: > 10000 nM
Human recombinant MMP-13; value outside parenthesis
  IC50: 3.3 nM

## O=C(NCCCOc1ccc(S(=O)(=O)C2(C(=O)NO)CCOCC2)cc1)c1cc2ccccc2cc1O [Example 376]
Human recombinant MMP-1; [1]
  IC50: > 10000 nM
Human recombinant MMP-9; [1]
  IC50: > 10000 nM
Human recombinant MMP-2; [1]
  IC50: 360 nM
Human recombinant MMP-14; [1]
  IC50: > 10000 nM
Human recombinant MMP-13; [1]
  IC50: 0.8 nM

## O=C(CCCOc1ccc(S(=O)(=O)C2(C(=O)NO)CCOCC2)cc1)c1cccs1 [Example 297]
Human recombinant MMP-1; [1]
  IC50: 6810 nM
Human recombinant MMP-9; [1]
  IC50: 64.6 nM
Human recombinant MMP-2; [1]
  IC50: 8.1 nM
Human recombinant MMP-14; [1]
  IC50: 6560 nM
Human recombinant MMP-13; [1]
  IC50: 0.5 nM

## O=C(NO)C1(S(=O)(=O)c2ccc(OCCCc3nc4ccccc4o3)cc2)CCOCC1 [Example 37, 4-[[4-[3-(2-benzoxazolyl)propoxy]phenyl]sulfonyl]tetrahydro-N-hydroxy-2H-pyran-4-carboxamide]
Human recombinant MMP-1; [2]
  IC50: 8710 nM
Human recombinant MMP-9; [2]
  IC50: 449 nM
Human recombinant MMP-2; [2]
  IC50: 30.3 nM
Human recombinant MMP-14; [2]
  IC50: > 10000 nM
Human recombinant MMP-13; [2]
  IC50: 1.4 nM

## COCCN1CCC(C(=O)NO)(S(=O)(=O)c2ccc(OCCCCC(=O)c3ccc(N(C)C)cc3)cc2)CC1 [Example 248]
Human recombinant MMP-1; value outside parenthesis
  IC50: > 10000 nM
Human recombinant MMP-9; value outside parenthesis
  IC50: 106 nM
Human recombinant MMP-2; value outside parenthesis
  IC50: 15.7 nM
Human recombinant MMP-14; value outside parenthesis
  IC50: 1700 nM
Human recombinant MMP-13; value outside parenthesis
  IC50: 0.2 nM

## O=C(CCCOc1ccc(S(=O)(=O)C2(C(=O)NO)CCOCC2)cc1)c1ccccc1 [Example 492]
Human recombinant MMP-1; value outside parentheses
  IC50: 3550 nM
Human recombinant MMP-9; value outside parentheses
  IC50: 67.3 nM
Human recombinant MMP-2; value outside parentheses
  IC50: 3.5 nM
Human recombinant MMP-14; value outside parentheses
  IC50: 574 nM
Human recombinant MMP-13; value outside parentheses
  IC50: 0.7 nM
